Test results as given in ChEMBL document CHEMBL1667742, “Angiotensin II receptor type 1 (AT1) selective nonpeptidic antagonists--a perspective” (Bioorg Med Chem, 2010).
Where a chain is given by its changes, count along the chain named. Blank lines part the entries; values can stand above or below the molecule they belong to.

How the values were obtained:
[1] = Antagonist activity at angiotensin AT1 receptor in rat aorta; assay type: functional, tissue-based
[2] = target: T1, Type-1 angiotensin II receptor (Oryctolagus cuniculus, UniProt P34976); assay: (§1) Antagonist activity at angiotensin AT1 receptor in rabbit aorta; assay type: functional, tissue-based; conditions: read-out: pA2 (converted)
T1 sequence (P34976 whole entry): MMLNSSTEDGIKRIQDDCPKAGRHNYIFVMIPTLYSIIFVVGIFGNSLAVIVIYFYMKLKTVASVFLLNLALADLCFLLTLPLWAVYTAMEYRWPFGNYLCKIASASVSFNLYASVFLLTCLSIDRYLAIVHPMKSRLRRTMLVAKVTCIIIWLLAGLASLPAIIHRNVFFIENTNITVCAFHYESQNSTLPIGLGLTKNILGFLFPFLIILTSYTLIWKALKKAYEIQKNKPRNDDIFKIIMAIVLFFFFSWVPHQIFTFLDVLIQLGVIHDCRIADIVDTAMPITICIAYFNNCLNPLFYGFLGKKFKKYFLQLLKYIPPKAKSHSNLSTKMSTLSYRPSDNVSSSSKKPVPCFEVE

[3] = Antagonist activity at angiotensin AT1 receptor in rat liver membranes; assay type: functional, cell membranes, Membrane
[4] = target: T2, Type-1 angiotensin II receptor (Homo sapiens, UniProt P30556); assay: Binding affinity to angiotensin AT1 receptor
T2 sequence (P30556 whole entry): T1 sequence (P34976 whole entry) with M2I, A49V, V254I, V270I, H272R, K311R, S349T, V353A

Rattus norvegicus [5] = assay: Inhibition of angiotensin 2-induced response in iv dosed normotensive rat; assay type: functional
[6] = target: T2, Type-1 angiotensin II receptor; assay: Antagonist activity at angiotensin AT1 receptor; assay type: functional; conditions: read-out: pA2 (converted)
[7] = Selectivity ratio of IC50 for angiotensin AT1 receptor to IC50 for angiotensin AT2 receptor
[8] = Binding affinity to angiotensin AT1 receptor in rat liver membranes; assay type: cell membranes, Membrane
[9] = target: T3, Type-1 angiotensin II receptor (Oryctolagus cuniculus) (UniProt P34976); assay: as §1; assay type: functional, tissue-based
T3 sequence (whole entry): T1 sequence (P34976 whole entry)

[10] = Binding affinity to angiotensin AT1 receptor in rat adrenal cortical membranes; assay type: cell membranes
[11] = Antagonist activity at angiotensin AT1 receptor in rat adrenal cortical membranes; assay type: functional, cell membranes
[12] = target: T4, Type-1 angiotensin II receptor (Bos taurus) (UniProt P25104); assay: Binding affinity to angiotensin AT1 receptor in bovine adrenal cortex membranes; assay type: cell membranes; conditions: Membrane
T4 sequence (whole entry): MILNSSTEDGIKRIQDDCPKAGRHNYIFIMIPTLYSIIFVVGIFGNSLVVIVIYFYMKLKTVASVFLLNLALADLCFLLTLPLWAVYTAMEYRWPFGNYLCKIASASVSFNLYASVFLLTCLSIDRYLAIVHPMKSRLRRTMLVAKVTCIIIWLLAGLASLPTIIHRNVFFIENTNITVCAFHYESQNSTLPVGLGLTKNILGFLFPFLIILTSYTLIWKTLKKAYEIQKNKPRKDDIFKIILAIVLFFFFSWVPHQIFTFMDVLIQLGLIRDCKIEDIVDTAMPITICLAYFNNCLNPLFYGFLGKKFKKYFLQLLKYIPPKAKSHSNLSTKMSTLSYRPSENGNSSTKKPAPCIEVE

[13] = target: T1, Type-1 angiotensin II receptor; assay: Antagonist activity at angiotensin AT1 receptor in rabbit aortic strip assessed as inhibition of angiotensin 2-induced contractile response; assay type: functional
[14] = target: T1, Type-1 angiotensin II receptor; assay: Antagonist activity at angiotensin AT1 receptor in rabbit aorta assessed as reduction of angiotensin 2-induced contractile response; assay type: functional, tissue-based; conditions: read-out: pA2 (converted)
[15] = Displacement of radiolabeled angiotensin2 from angiotensin AT1 receptor in rat adrenal cortex membranes; assay type: cell membranes, Membrane
Rattus norvegicus [16] = assay: Antihypertensive activity in po dosed renal hypertensive rat model; assay type: functional; conditions: read-out: ID50 (the source's name)
Rattus norvegicus [17] = assay: Antihypertensive activity in iv dosed renal hypertensive rat model; assay type: functional; conditions: read-out: ID50 (the source's name)
Rattus norvegicus [18] = assay: Antihypertensive activity in po dosed conscious rat; assay type: functional; conditions: read-out: ID50 (the source's name)
[19] = Oral bioavailability in rat; assay type: ADME, organism-based; conditions: in vivo

SMILES: CCCCc1nc2cccnc2n1Cc1ccc(-n2cccc2-c2nnn[nH]2)cc1
IC50 [1]: 0.6 nM
Kb [2]: 3.55 nM

SMILES: CCc1cc(Sc2ccc(-c3ccccc3-c3nn[nH]n3)cc2)c2ncccc2n1
IC50 [3]: 20 nM

SMILES: CCCc1cc(O)c(C)c(=O)n1Cc1ccc(-c2ccccc2-c2nn[nH]n2)cc1
ED50 (Rattus norvegicus [5]; Rattus norvegicus, iv, read-out: ID50 (the source's name)): 0.02 mg/kg

SMILES: CCCCc1nnc(SCc2ccccc2C(=O)O)n1Cc1ccc(-c2ccccc2-c2nn[nH]n2)cc1
IC50 [4]: 1.4 nM

SMILES: CCCCc1nc(Cc2ccc(-c3ccccc3-c3nnn[nH]3)cc2)n(CCCC)n1
Kb [6]: 3.16 nM
IC50 [4]: 16 nM

SMILES: CCc1nc2ccc(NC(=O)N(C)C(C)C)cc2c(=O)n1Cc1ccc(-c2ccccc2S(=O)(=O)NC(=O)OCCC2CC2)cc1F
Ratio IC50 [7]: 2

SMILES: Cc1ccnc2c1nc(C1CC1)n2Cc1ccc(-c2ccccc2C(=O)O)cc1
Kb [2]: 2 nM
IC50 [10]: 52 nM

SMILES: CCCc1cc(=O)n(CC(=O)N(C)C)c(=O)n1Cc1ccc(-c2ccccc2-c2nn[nH]n2)cc1
IC50 [11]: 0.65 nM
Activity [12]: 9.3 nM

SMILES: CCCCc1cn(CCCC)c(=O)n1Cc1ccc(-c2ccccc2-c2nnn[nH]2)nc1 [SC-52892]
Kb [6]: 2.09 nM
IC50 [4]: 6.5 nM

SMILES: COc1c(OCc2ccc(-c3ccccc3-c3nn[nH]n3)cc2)cc(C)nc1C
pKi [8]: 8.7
Kb [14]: 1.51 nM

SMILES: Cc1nc(Sc2ccc(-c3ccccc3-c3nn[nH]n3)cc2)c2ccccc2n1
IC50 [3]: 350 nM

SMILES: CCCCc1nc2ccc(C(C)(C)OC)cc2c(=O)n1Cc1ccc(-c2ccccc2-c2nn[nH]n2)cc1 [CL-329167]
Kb [2]: 9.77 nM
Kb [6]: 0.0126 nM
IC50 [4]: 6 nM

SMILES: CCCc1nc(CC)c(C=O)n1Cc1ccc(-c2ccccc2-c2nn[nH]n2)cc1
IC50 [15]: 2.1 nM

SMILES: CCCCc1cn([C@H]2[C@H](C)CCC[C@@H]2C)c(=O)n1Cc1ccc(-c2ccccc2-c2nnn[nH]2)nc1 [SC-55634]
Kb [6]: 0.501 nM
IC50 [4]: 4.9 nM

SMILES: CCCc1nc(C)n2[nH]c(=O)nc2c1Cc1ccc(-c2ccccc2-c2nnn[nH]2)cc1
Ki [4]: 24 nM

SMILES: CCCCc1nc2cccnc2n1-c1ccc(CCO/C(O)=C2\C(C(C)C)=NC(C)=C(C(=O)Nc3cccnc3)C2c2ccccc2Cl)cc1 (stereo not given)
IC50 [11]: 0.6 nM

SMILES: CCCCc1ncc(/C=C(\Cc2cccs2)C(=O)O)n1Cc1ccc(C(=O)O)cc1 [EPROSARTAN]
ID60 (Rattus norvegicus [5]): 0.08 mg/kg

SMILES: CCCCc1nc2ccc([C@]3(C)C[C@H]4CCCN4O3)cc2c(=O)n1Cc1ccc(-c2ccccc2-c2nn[nH]n2)cc1
Kb [6]: 0.0126 nM

Continued, in another order:

Ki [4]: 1 nM
SMILES: CCCCC1=NC(Cl)=C(C(=O)O)C(C)N1Cc1ccc(-c2ccccc2-c2nnn[nH]2)cc1 (stereo not given)

IC50 [1]: 2.7 nM
SMILES: CCCCC(=O)N(Cc1ccc(-c2ccccc2-c2nnn[nH]2)cc1)[C@H](C(=O)O)C(C)C

IC50 [8]: 5.5 nM
pD2 [9]: 9.91
SMILES: CCc1nc2c(n1Cc1ccc(-c3ccccc3-c3nn[nH]n3)cc1)/C(=C/C(=O)O)CCCC2

Kb [2]: 0.0501 nM
SMILES: CCc1cc(OCc2ccc(-c3ccccc3-c3nnn[nH]3)cc2)c2c(n1)CCCC2

IC50 [13]: 0.055 nM
SMILES: CCCCc1nc2cccc(C(=O)O)c2n1Cc1ccc(-c2ccccc2-c2nnn[nH]2)cc1

IC50 [15]: 0.2 nM
SMILES: CCCCc1nc(SC)c(C(=O)O)n1Cc1ccc(-c2ccccc2-c2nnn[nH]2)cc1
ED50 (Rattus norvegicus [16]): 0.4 mg/kg
ED50 (Rattus norvegicus [17]): 0.05 mg/kg

IC50 [13]: 200 nM
bioavailability [19]: 28%
SMILES: CCOc1nc2cccc(C(=O)OC(C)OC(=O)OC3CCCCC3)c2n1Cc1ccc(-c2ccccc2-c2nnn[nH]2)cc1 (stereo not given) [CANDESARTAN CILEXETIL]
ED50 (Rattus norvegicus [18]): 0.06 mg/kg

Activity [12]: 2.5 nM
SMILES: CCOc1nc2cccc(C(=O)O)c2n1Cc1ccc(-c2ccccc2-c2nsc(O)n2)cc1
